Results from US6864217B2, “Herbicidal compositions with substituted phenylsulfonylureas for controlling weeds in rice” (Hoechst Schering AgrEvo GmbH, priority 1998, dated 2005).
Structures can show the parent of a compound that is named as a salt. Where two headings read alike, the source gives them in different places.

Assays:
Cucumis dipsaceus = assay: Table 1: weed control by A1*), safener C3-1) and combination; type: in vivo
Procedure: (§5) The examples mentioned below were carried out in the greenhouse, and in some instances, in field trials.

[1] = test system: Oryza sativa (paddy rice); assay: Table 1: damage to paddy rice; type: in vivo
Procedure: as §5

ECHCO = assay: Table 2 field trial, treatment at the 2-3 leaf stage weed grasses: weed control; type: in vivo, Echinochloa colona; settings: 28 days after application
Procedure: as §5

Cyperus irria = assay: Table 3 field trial, treatment at the 2 leaf stage weed grasses: weed control; type: in vivo; settings: 28 days after application
Procedure: as §5

Echinochloa crusgalli [2] = assay: Table 4 field trial: weed control; type: in vivo
Procedure: as §5

Echinochloa crusgalli [3] = assay: Table 5 field trial, treatment at the 2-4 leaf stage rice: weed control; type: in vivo; settings: evaluation after 28 days
Procedure: as §5

Echinochloa crusgalli [4] = assay: Table 6 field trial, treatment at the 1-2 leaf stage: weed control; type: in vivo; settings: 2 g of ai/ha, 28 days after application
Procedure: as §5

Echinochloa crusgalli [5] = assay: Table 7 field trial, treatment at the 1-2 leaf stage: weed control; type: in vivo; settings: 2 g of ai/ha, 28 days after application
Procedure: as §5

Oryza sativa [6] = assay: Table 7 field trial, treatment at the 1-2 leaf stage: rice damage; type: in vivo; settings: 2 g of ai/ha, 28 days after application
Procedure: as §5

Oryza sativa [7] = assay: Table 9 greenhouse trial, treatment at the 1-2 leaf stage: rice damage; type: in vivo; settings: 22 days after application
Procedure: (§1) Seeds or rhizome pieces of mono- and dicotyledonous weed plants are placed into sandy loam soil in plastic pots, covered with soil and grown in a greenhouse under good growth conditions (temperature, atmospheric humidity, water supply). Weeds which are encountered in the cultivation of rice are cultivated in pots in which the water level is up to 2 cm over the soil surface. Three weeks after sowing, the test plants are treated at the three-leaf stage. The active compound combinations according to the invention, formulated as wettable powders or emulsion concentrates, and, in parallel experiments, the correspondingly formulated individual active compounds are sprayed onto the green parts of the plants at different dosages using an amount of water of 300 to 600 l/ha (converted), and, after about 3 to 4 weeks of the test plants in the greenhouse under optimum growth conditions (temperature, atmospheric humidity, water supply), the effect of the preparations is evaluated visually in comparison to untreated controls. In the case of rice or weeds which are encountered in the cultivation of rice, the active compounds are also added directly to the water for irrigation (application analogous to the so-called granules application) or sprayed onto plants and added to the water for irrigation. The experiments were designed with several, up to five, repetitions. The herbicidal compositions according to the invention also have good herbicidal post-emergence activity against a broad spectrum of economically important weed grasses and broad-leaved weeds.
Greenhouse trial: Treatment at the 1-2 leaf stage, evaluation 22 days after the application.

Oryza sativa [8] = settings: in vivo
Procedure: as §1, with “The herbicidal compositions according to the invention also have good herbicidal post-emergence activity against a broad spectrum of economically important weed grasses and broad-leaved weeds.” left out

Sagittaria pygmaea = assay: Table 14 greenhouse trial, treatment at the 3-4 leaf stage: weed control; type: in vivo; settings: 21 days after application
Procedure: as §1
Greenhouse trial: Treatment at the 3-4 leaf stage, evaluation 21 days after the application.

Cyperus serotinus [9] = assay: Table 16 greenhouse trial, treatment at the 2-3 leaf stage: weed control; type: in vivo; settings: 20 days after application
Procedure: as §1
(§2) Greenhouse trail: Treatment at the 2-3 leaf stage, evaluation 20 days after the application.

Oryza sativa [10] = assay: Table 16 greenhouse trial, treatment at the 2-3 leaf stage: rice damage; type: in vivo; settings: 20 days after application
Procedure: as §1, §2

Echinochloa crusgalli [11] = assay: Table 17 field trial, treatment at the 2 leaf stage: weed control; type: in vivo; settings: 14 days after application
Excerpt: (§3) Field trial: Treatment at the 2 leaf stage, evaluation 14 days after the application.

Oryza sativa [12] = assay: Table 18 field trial, treatment at the 1-2 leaf stage: rice damage; type: in vivo; settings: 14 days after application
Excerpt: Field trial: Treatment at the 1-2 leaf stage, evaluation 14 days after the application.

Cyperus serotinus [13] = assay: Table 19 field trial, treatment at the 2 leaf stage: weed control; type: in vivo; settings: 14 days after application
Excerpt: as §3

Ipomoea hederacea = assay: Table 20 field trial, treatment at the 4-6 leaf stage: weed control; type: in vivo; settings: 2.5 g of ai/ha, 28 days after application
Excerpt: Field trial: Treatment at the 4-6 leaf stage, evaluation 28 days after the application.

Oryza sativa [14] = assay: Table 21 field trial, treatment at the 2 leaf stage: rice damage; type: in vivo; settings: 2.5 g of ai/ha; field trial, 28 days after application
Excerpt: Field trial: Treatment at the 2 leaf stage, evaluation 28 days after the application.

Oryza sativa [15] = assay: Table 22 field trial, treatment: 1-2 leaf stage: rice damage; type: in vivo; settings: 28 days after application
Excerpt: Field trial: Treatment: 1-2 leaf stage, evaluation 28 days after the application.

Oryza sativa [16] = assay: Table 23 field trial, treatment: 4-6 leaf stage: rice damage; type: in vivo; settings: 36 days after application
Excerpt: Field trial: Treatment: 4-6 leaf stage, evaluation 36 days after the application.

Polygonum convolvulus = assay: Table 25 field trial, treatment at the 3 leaf stage: weed control; type: in vivo; settings: 33 days after application
Excerpt: (§4) Field trial: Treatment at the 3 leaf stage, evaluation 33 days after the application.

Oryza sativa [17] = assay: Table 25 field trial, treatment at the 3 leaf stage: rice damage; type: in vivo; settings: 33 days after application
Excerpt: as §4

Commelina benghalensis = assay: Table 26 field trial, treatment at the 3 leaf stage: weed control; type: in vivo; settings: 33 days after application
Excerpt: as §4

Oryza sativa [18] = assay: Table 4 field trial: rice damage
Procedure: as §5

Oryza sativa [19] = assay: Table 2a field trial, treatment at the 1-2 leaf stage rice: rice damage; settings: 28 days after application
Procedure: as §5

## COC(=O)c1ccc(I)cc1S(=O)(=O)NC(=O)Nc1nc(C)nc(OC)n1 [A1*), Sodium salt of methyl 4-iodo-2-[3-(4-methoxy-6-methyl-1,3,5-triazin-2-yl)ureidosulfonyl]benzoate]
Cucumis dipsaceus; 1.25 g of ai/ha
  CUMDI % control: 60%
Cucumis dipsaceus; 2.5 g of ai/ha
  CUMDI % control: 80%
[1]; 1.25 g of ai/ha
  ORYSW % damage: 15%
[1]; 2.5 g of ai/ha
  ORYSW % damage: 15%
ECHCO; 1.25 g of ai/ha
  ECHCO % control: 0%
ECHCO; 2.5 g of ai/ha
  ECHCO % control: 35%
ECHCO; 5 g of ai/ha
  ECHCO % control: 37%
Cyperus irria; 0.75 g of ai/ha
  CYPIR % control: 40%
Cyperus irria; 1.5 g of ai/ha
  CYPIR % control: 67%
Cyperus irria; 2.5 g of ai/ha
  CYPIR % control: 87%
Echinochloa crusgalli [2]; 1.25 g of ai/ha
  ECHCG % control: 0%
Echinochloa crusgalli [2]; 2.5 g of ai/ha
  ECHCG % control: 0%
Echinochloa crusgalli [2]; 5 g of ai/ha
  ECHCG % control: 0%
Echinochloa crusgalli [3]; 1.25 g of ai/ha
  ECHCG % control: 0%
Echinochloa crusgalli [3]; 2.5 g of ai/ha
  ECHCG % control: 0%
Echinochloa crusgalli [3]; 5 g of ai/ha
  ECHCG % control: 0%
Echinochloa crusgalli [4]
  ECHCG % control: 10%
Echinochloa crusgalli [5]
  ECHCG % control: 10%
Oryza sativa [6]
  ORYSW % damage: 0%
Oryza sativa [7]; 1.5 g of ai/ha
  ORYSW % damage: 10%
Oryza sativa [7]; 3 g of ai/ha
  ORYSW % damage: 10%
Oryza sativa [8]
  ORYSW % damage: 10%
Sagittaria pygmaea; 1.5 g of ai/ha
  SAGPY % control: 30%
Sagittaria pygmaea; 3 g of ai/ha
  SAGPY % control: 50%
Cyperus serotinus [9]; 1.25 g of ai/ha
  CYPSE % control: 10%
Cyperus serotinus [9]; 2.5 g of ai/ha
  CYPSE % control: 30%
Cyperus serotinus [9]; 5 g of ai/ha
  CYPSE % control: 50%
Oryza sativa [10]; 1.25 g of ai/ha
  ORYSW % damage: 5%
Oryza sativa [10]; 2.5 g of ai/ha
  ORYSW % damage: 10%
Oryza sativa [10]; 5 g of ai/ha
  ORYSW % damage: 10%
Echinochloa crusgalli [11]; 1 g of ai/ha
  ECHCG % control: 5%
Echinochloa crusgalli [11]; 2 g of ai/ha
  ECHCG % control: 25%
Echinochloa crusgalli [11]; 4 g of ai/ha
  ECHCG % control: 45%
Oryza sativa [12]; 1 g of ai/ha
  ORYSW % damage: 7%
Oryza sativa [12]; 2 g of ai/ha
  ORYSW % damage: 12%
Cyperus serotinus [13]; 1.5 g of ai/ha
  CYPSE % control: 10%
Cyperus serotinus [13]; 3 g of ai/ha
  CYPSE % control: 30%
Ipomoea hederacea
  IPOHE % control: 30%
Oryza sativa [14]
  ORYSW % damage: 8%
Oryza sativa [15]; 2.5 g of ai/ha
  ORYSW % damage: 6%
Oryza sativa [15]; 5 g of ai/ha
  ORYSW % damage: 12%
Oryza sativa [16]; 0.62 g of ai/ha
  ORYSW % damage: 3%
Oryza sativa [16]; 1.25 g of ai/ha
  ORYSW % damage: 8%
Oryza sativa [16]; 2.5 g of ai/ha
  ORYSW % damage: 12%
Polygonum convolvulus; 1.25 g of ai/ha
  POLCO % control: 35%
Polygonum convolvulus; 2.5 g of ai/ha
  POLCO % control: 80%
Oryza sativa [17]; 1.25 g of ai/ha
  ORYSW % damage: 6%
Oryza sativa [17]; 2.5 g of ai/ha
  ORYSW % damage: 12%
Commelina benghalensis; 2.5 g of ai/ha
  COMBE % control: 47%
Commelina benghalensis; 5 g of ai/ha
  COMBE % control: 67%
Oryza sativa [18]; 1.25 g of ai/ha
  ORYSW % damage: 0%
Oryza sativa [18]; 2.5 g of ai/ha
  ORYSW % damage: 0%
Oryza sativa [18]; 5 g of ai/ha
  ORYSW % damage: 1%
Oryza sativa [19]; 1.25 g of ai/ha
  ORYSW % damage: 10%
Oryza sativa [19]; 2.5 g of ai/ha
  ORYSW % damage: 25%
Oryza sativa [19]; 5 g of ai/ha
  ORYSW % damage: 25%
